Reference: ChEMBL document CHEMBL3046307, “Synthesis and evaluation of 1-benzhydryl-sulfonyl-piperazine derivatives as inhibitors of MDA-MB-231 human breast cancer cell proliferation” (2007)

system: MDA-MB-231; assay: Cytotoxicity against Homo sapiens (human) MDA-MB-231 cells assessed as inhibition of cell proliferation at 2 mM after 72 hr by MTS assay relative to control; format: functional; settings: MDA-MB-231, 72 h

| SMILES | inhibition at 2000 µM |
| --- | --- |
| CS(=O)(=O)N1CCN(C(c2ccccc2)c2ccccc2)CC1 | 3.79% |
| Cc1ccc(S(=O)(=O)N2CCN(C(c3ccccc3)c3ccccc3)CC2)cc1 | 10% |
| O=S(=O)(c1ccc(Cl)cc1)N1CCN(C(c2ccccc2)c2ccccc2)CC1 | 1% |
| CC(C)(C)c1ccc(S(=O)(=O)N2CCN(C(c3ccccc3)c3ccccc3)CC2)cc1 | 28.6% |
| Cc1noc(C)c1S(=O)(=O)N1CCN(C(c2ccccc2)c2ccccc2)CC1 | 20.6% |
